Measurements reported in patent publication US10829796B2, “Bacteria identification and antimicrobial susceptibility test” (priority 2015, dated 2020).

Tested on: bacteria samples 4c, 4e, 5c, 5e, 6d
Experiment: Antibiotic susceptibility testing (colour of media), plate configuration #3, reference colours at 0 hours for bacteria samples 4c, 4e, 5c, 5e, 6d
Type: cell-based
Conditions: T~0 h
[1] = Benzyl Penicillin or Cloxacillin 1 μg/ml
[2] = Benzyl Penicillin or Cloxacillin 10 μg/ml
[3] = Benzyl Penicillin or Cloxacillin 100 μg/ml
[4] = Benzyl Penicillin or Cloxacillin 1,000 μg/ml
[5] = Benzyl Penicillin or Cloxacillin 10,000 μg/ml

Measured: Colour of media in each well

Cc1onc(-c2ccccc2Cl)c1C(=O)N[C@@H]1C(=O)N2[C@@H]1SC(C)(C)[C@@H]2C(=O)O [cloxacillin]
red: [1] | [2] | [3] | [4] | [5]

C[C@H]1[C@H](NC(=O)/C(=N\OC(C)(C)C(=O)O)c2csc(N)n2)C(=O)N1S(=O)(=O)O [aztreonam]
red: Aztreonam 0.001 μg/ml | Aztreonam 0.01 μg/ml | Aztreonam 0.1 μg/ml | Aztreonam 1 μg/ml | Aztreonam 10 μg/ml

CC1(C)S[C@@H]2[C@H](NC(=O)Cc3ccccc3)C(=O)N2[C@H]1C(=O)O [benzyl penicillin]
Red: [1] | [2] | [3] | [4] | [5]
